From patent US5760036A, “Aminediol protease inhibitors” (E. R. Squibb & Sons, Inc., priority 1995, dated 1998)
Where a name gives a salt, the structure may show the parent alone. Read-outs that look alike come from different tables or passages of the source.

Key:
HIV protease = target: T1, HIV protease (Human immunodeficiency virus type 1 group M subtype B, UniProt P04585); experiment: HIV Protease Assay; assay type: biochemical
T1 construct: and purified protease
Summary of the method: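 Purified protease cleaved 450 μM octapeptide substrate in 50 mM sodium acetate pH 5.5 with 100 μg/ml BSA for 30 minutes at 37° C; product analyzed by reverse-phase HPLC at UV220 after H3PO4 quench. Inhibitors tested at final 10 μM with 4% DMSO.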

[1] = test system: RF strain of HIV (CEM-SS cells); experiment: Cell Culture Anti-HIV Activity (cell viability, formazan); assay type: cell-based; conditions: CEM-SS cells, RF strain of HIV, multiplicity of infection 0.04, 6 days at 37° C., 450 nm, read-out: HIV (CEM Cells) IC50
Method: The antiviral activity of aminediol inhibitors of the present invention was evaluated by a microculture method which determines the increase in cell viability of an infected culture when a drug is added. The assay depends on the metabolic reduction of tetrazolium reagent by viable cells to yield a soluble colored formazan product.
The assay was performed as follows: suspensions of CEM-SS cells (5000/well) were infected with the RF strain of HIV at a multiplicity of infection at 0.04 in a 96-well plate. The compounds of the present invention listed in the following Table 1, serially diluted in half-log fashion, were added to the infected and uninfected control cells. Untreated (infected and uninfected) cells were included as controls. Following incubation for 6 days at 37° C., viable cells in each well were quantitated by the visible light absorbance at 450 nm.
The IC50 was calculated as the concentration of drug that increased the formazan production in virally infected cells to 50% of that produced by uninfected cells in the absence of drug.

[2] = pH 5.5, 10 μM inhibitor, 4% DMSO, 450 μM substrate, pH 5.5, 30 minutes at 37° C., RP-HPLC, read-out: HIV Protease % Inhibition at 10 μM
[3] = Human immunodeficiency virus 1, CEM-SS, 144 h

inhibition at 10 µM (HIV protease; [2]) | inhibition at 10 µM (HIV protease; pH 5.5, read-out: HIV Protease % Inhibition at 10 μM) | Structure (SMILES) | IC50 [1, 3] | IC50 [1]
95% |  | CC(C)(C)OC(=O)N[C@@H](Cc1ccccc1)[C@H](O)CNC[C@@H](O)[C@H](Cc1ccccc1)NC(=O)C(NC(=O)OCc1ccccc1)C(C)(C)O (single isomer, unassigned; isomer a) [Compound 301, [1S-[1R*,2S*(2S*,3R*)]]-[1-[[[3-[[(1,1-Dimethylethoxy)carbonyl]amino]-2-hydroxy-4-phenylbutyl]amino]-2-hydroxy-1-(phenylmethyl)propyl]amino]carbonyl]-2-hydroxy-2-methylpropyl]carbamic acid, phenylmethyl ester, isomer A] | 2.4 µM | 
99% |  | CC(C)(C)OC(=O)N[C@@H](Cc1ccccc1)[C@H](O)CNC[C@@H](O)[C@H](Cc1ccc(OCCc2ccccn2)cc1)NC(=O)OC(C)(C)C [Compound 178, [1S-[1R*,2S*(2S*,3R*)]]-[3-[[3-[[(1,1-Dimethylethoxy)carbonyl]amino]-2-hydroxy-4-(4-[2-(2-pyridinyl)ethoxy]phenyl]butyl]amino]-2-hydroxy-1-(phenylmethyl)-propyl]carbamic acid, 1,1-dimethyl-ethyl ester] | 0.03 µM | 
99% |  | CC(C)(C)OC(=O)N[C@@H](Cc1ccccc1)[C@H](O)CNC[C@@H](O)[C@H](Cc1ccc(OCCOc2cccnc2)cc1)NC(=O)OC(C)(C)C [Compound 304, [1S-[1R*,2S* (2S*, 3R*)]]-[3-[[3-[[(1,1-Dimethylethoxy)carbonyl]amino]-2-hydroxy-4-[4-[2-(3-pyridinyloxy)ethoxylphenyl]butyl]amino]-2-hydroxy-1-(phenylmethyl)propyl]carbamic acid, 1,1-dimethylethyl ester] | 0.03 µM | 
100% |  | CC(C)[C@H](NC(=O)N(C)Cc1ccccn1)C(=O)N[C@@H](Cc1ccccc1)[C@H](O)CNC[C@@H](O)[C@H](Cc1ccccc1)NC(=O)[C@@H](NC(=O)N(C)Cc1ccccn1)C(C)C [Compound 75, [S-(1R*,2S*)]-N,N'-[Iminobisr[2-hydroxy-1-(phenylmethyl)-3,1-propanediyl]bisr[N^2-[[methyl(2-pyridinylmethyl)amino]carbonyl]-L-valinamide] | 5 µM | 
 | 98% | CC(C)(C)OC(=O)N[C@@H](Cc1ccccc1)[C@H](O)CNC[C@@H](O)[C@H](Cc1ccccc1)NC(=O)[C@](C)(O)c1ccccc1 [Compound 353, [1S-[1R*,2S*[2S*,3R*(S*)]]]-[3-[[3-[(2-Hydroxy-1-oxo-2-phenylpropyl)amino]-2-hydroxy-4-phenylbutyl]amino]-2-hydroxy-l-(phenylmethyl)propyl]carbamic acid, 1,1-dimethylethyl ester] | 1.1 µM | 
100% |  | CC(C)(C)OC(=O)N[C@@H](Cc1ccccc1)[C@H](O)CNC[C@@H](O)[C@H](Cc1ccccc1)NC(=O)[C@@H](NC(=O)OCc1ccccc1)C(C)(C)C [Compound 88, [1S-[1R*-[1R*,2S*(2S*,3R*)]]]-2,2-Dimethyl-1-[[[3-[[3-[[(1,1-Dimethylethoxcy)-carbonylamino]-2-hydroxy-4-phenylbutyl]amino]-2-hydroxy-1-(phenylmethyl),propyl]amino]-carbonyl]propoyl]carbamic acid, phenylmethyl ester] | 0.03 µM | 
100% |  | COCCOc1ccc(C[C@H](NC(=O)OC(C)(C)CO)[C@H](O)CNC[C@@H](O)[C@H](Cc2ccccc2)NC(=O)OC(C)(C)C)cc1 [Compound 283, [1S-[1R*,2S*(2S*,3R*)]]-[3-[[3-[[(1,1-Dimethylethoxy)carbonyl]amino]-2-hydroxy-4-phenylbutyl]amino]-2-hydroxy-1-8 [4-(2-methoxyethoxy)phenyl]methyl]propyl]carbamic acid, 2-hydroxy-1,1-dimethylethyl ester] | 0.11 µM | 
3% |  | CN(CC(=O)[C@H](Cc1ccccc1)NC(=O)OC(C)(C)C)C[C@H](O)[C@H](Cc1ccccc1)NC(=O)OC(C)(C)C [Compound 199, [1S-[1R*(2R*,3R*)]]-3-[[3[[-(1,1-Dimethylethoxy)carbonyl]-amino]-2-hydroxy-4-phenylbutyl]-methylamino]-2-oxo-1-(phenylmethyl)-propyl]carbamic acid, 1,1-dimethylethyl ester] | > 17 µM | 
99% |  | CC(C)(C)OC(=O)N[C@@H](Cc1ccccc1)[C@H](O)CNC[C@@H](O)[C@H](Cc1ccccc1)NC(=O)C(NC(=O)OCc1ccccc1)C(F)(F)F (stereo partly drawn) [Compound 328, [1S-[1R*,2S*(2S*,3R*)]]-[2-[[3-[[3-[[(1,1-Dimethylethoxy)carbonyl]amino]-2-hydroxy-4-phenylbutyl]amino]-2-hydroxy-1-(phenylmethyl)propyl]amino]-2-oxo-1-(trifluoromethyl)ethyl]carbamic acid, phenylmethyl ester] | 0.54 µM | 
100% |  | CC(C)[C@H](NC(=O)N(C)Cc1nc2ccccc2[nH]1)C(=O)N[C@@H](Cc1ccccc1)[C@H](O)CNC[C@@H](O)[C@H](Cc1ccccc1)NC(=O)OC(C)(C)C (relative stereo) [Compound 245, [1R*,2S*(2S*,3R*)]-N-[3-[[3-[[(1,1-Dimethylethoxy)carbonyl]amino]-2-hydroxy-4-phenylbutyl]amino]-2-hydroxy-1-(phenylmethyl)propyl]-N^2-[[(1H-benzimidazol-2-yl-methyl)methylamino]carbonyl]-L-valinamide] | 1.8 µM | 
100% |  | CC(C)(C)OC(=O)N[C@@H](Cc1ccccc1)[C@H](O)CNC[C@@H](O)[C@H](Cc1ccccc1)NC(=O)C(NC(=O)OCc1ccccc1)C(C)(C)CO (single isomer, unassigned; isomer a) [Compound 308, [1S-[1R*,2S*(2S*,3R*)]]-1-[[[3-[[(1,1-Dimethylethoxy)carbonyl]amino]-2-hydroxy-4-phenylbutyl]amino]-2-hydroxy-1-(phenylmethyl)propyl]amino]carbonyl-2-(hydroxymethyl)-2-methylpropyl] carbamic acid, phenylmethyl ester, isomer A] |  | 0.02 µM
95% |  | CC(C)(C)OC(=O)N[C@@H](Cc1ccccc1)[C@H](O)CNC[C@@H](O)[C@H](Cc1ccccc1)NC(=O)OCCO [Compound 241, [R-(R*,S*)]-[Iminobis[2-hydroxy-1-(phenylmethyl)-3,1-propanediyl)]biscarbamic acid, 1,1-dimethylethyl-2-hydroxyethyl ester] | 0.28 µM | 
99% |  | CNC(=O)C(C(=O)N[C@@H](Cc1ccccc1)[C@H](O)CNC[C@@H](O)[C@H](Cc1ccccc1)NC(=O)OC(C)(C)C)C(C)(C)C (stereo partly drawn) [Compound 354, [1S-[1R*,2S*(2S*,3R*)]]-[3-[[3-[[3,3-Dimethyl-2-[(methylamino)carbonyl]-1-oxobutyl]amino]-2-hydroxy-4-phenylbutyl]amino]-2-hydroxy-1-(phenylmethyl)propyl]carbamic acid, 1,1-dimethylethyl ester] | 0.12 µM | 
100% |  | CC(C)[C@H](NC(=O)[C@@H](N)Cc1ccccc1)C(=O)N[C@@H](Cc1ccccc1)[C@H](O)CNC[C@@H](O)[C@H](Cc1ccccc1)NC(=O)[C@@H](NC(=O)[C@@H](N)Cc1ccccc1)C(C)C [Compound 92, [S-(1R*,2S*)]-N,N'-[Iminobis[2-hydroxy-1-(phenylmethyl)-3,1-propanediyl]bis[N^2-(L-phenylalanyl)-L-valinamide[,trihydrochloride] | 39 µM | 
100% |  | CC(C)(C)OC(=O)N[C@@H](Cc1ccccc1)[C@H](O)CNC[C@@H](O)[C@H](Cc1ccccc1)NC(=O)[C@@H](NC(=O)OCc1cc2ncccc2o1)C(C)(C)C [Compound 323, [S-[1R*,2S*(2S*,3R*)]]-[r2,2-Dimethyl-1-[[[3-[[3-[[(1.1-dimethylethoxy)carbonyl]amino]-2-hydroxy-4-phenylbutyl]amino]-2-hydroxy-1-(phenylmethyl)propyl]amino]carbonyl]propyl]carbamic acid, (2-furo[3,2-b]pyridinyl)methyl ester] | 0.014 µM | 
0% |  | CC(C)(C)OC(=O)N[C@@H](Cc1ccccc1)C(O)CN(Cc1ccccc1)CC(O)[C@H](Cc1ccccc1)NC(=O)OC(C)(C)C (stereo partly drawn) [Compound 194, [2S-(2R*,2R*)]-[[(Phenylmethyl)-imino]bis[2-hydroxy-4-phenyl-3,1-butanediyl]]biscarbamic acid, bis(1,1-dimethylethyl)ester] | > 5 µM | 
99% |  | CC(C)(C)OC(=O)N[C@@H](Cc1ccccc1)[C@H](O)CNC[C@@H](O)[C@H](Cc1ccccc1)NC(=O)[C@@H](NC(=O)OCc1nc(-c2ccccc2)co1)C(C)(C)C [Compound 345, [S-(1R*,2S*(2S*,3R*)]]-[2,2-Dimethyl-1-[[[3-[[3-[[1,1-dimethylethoxy)-carbonyl]amino]-2-hydroxy-4-phenylbutyl]amino]-2-hydroxy-1-(phenylmethyl)propyl]amino]-carbonyl]propyl]carbamic acid, (4-phenyl-2-oxazolyl)methyl ester] | 0.33 µM | 
